Data on one molecule can be found in US20220168430A1, “THERAPEUTIC METHODS FOR TREATING HEPATITIS B” (priority 2019, published 2022).

The structures appear in SMILES notation. pEC50: −log10 of the molar value.

In data set [1] the test system is HepG2.2.15 cells. It is filed as cell-based, human. The settings on record: ETV 3.17E−05 μM; Cmpd 2 μM: 0.01, 0.0032, 0.001, 0.0003, 0.0001, 0. The source says:
The combination results were completed in duplicate with each assay consisting of 4 technical repeats.
The combination results were completed in duplicate with each assay consisting of 4 technical repeats. In this assay system, the combination results in additive inhibition of HBV DNA.

For data set [2], the system named is HBV rcDNA. As to the kind of experiment: Dual agent combination in HepDE19 cells, rcDNA by Quantigene 2.0 bDNA assay (Examples 5-8). It is filed as cell-based, HBV; HepDE19 (HepG2 human hepatocarcinoma derived). The settings on record: for ADDITIVE INHIBITION: Expt 3. On the procedure: In vitro dual agent combination studies were conducted using the method of Prichard and Shipman 1990 (Prichard M N, Shipman C, Jr. 1990. Antiviral Res 14:181-205). The HepDE19 cell culture system is a HepG2 (human hepatocarcinoma) derived cell line that supports HBV DNA replication and cccDNA formation under control the control of a CMV Tet-off promoter system (Guo et al. 2007. J Virol 81:12472-84). HepDE19 (50,000 cells/well) were plated in 96 well collagen-coated tissue-culture treated microtiter plates in DMEM/F12 medium supplemented with 10% fetal bovine serum+1% penicillin-streptomycin with tetracycline (1 μg/mL) and incubated in a humidified incubator at 37° C. and 5% CO2 overnight. Next day, the cells were switched to fresh medium without tetracycline and incubated for 4 hrs at 37° C. and 5% CO2. The cells were switched to fresh medium and treated with inhibitor A and inhibitor B, at concentration range spanning their respective EC50 values. […] The two inhibitors were tested both singly as well as in combinations in a checkerboard fashion such that each concentration of inhibitor A was combined with each concentration of inhibitor B to determine their combination effects on inhibition of rcDNA production. There were four replicates of each concentration combination in each experiment. The plates were incubated for 7 days in a humidified incubator at 37° C. and 5% CO2. The level of rcDNA present in the wells was measured using a Quantigene 2.0 bDNA assay kit (Affymetrix, Santa Clara, Calif.) with HBV specific custom probe set (genotype D ayw) and according to the manufacturer's instructions and read using a luminescence plate reader and the relative luminescence units (RLU) data generated from each well was calculated as % inhibition of the untreated control wells and analyzed using the MacSynergy II program to determine whether the combinations were synergistic, additive or antagonistic using the interpretive guidelines established by Prichard and Shipman (Prichard M N, Shipman C, Jr. 1990. […] Each experiment was repeated at least three times and the averages and standard deviations of individual determinations was calculated to derive the conclusion. Concurrently, in each experiment, the effect of inhibitor combinations on cell viability was assessed using replicate plates in triplicates that were used to determine the ATP content as a measure of cell viability using the Cell-Titer Glo reagent (Promega, Madison, Wis.) as per the manufacturer's instructions.

In the case of `C=C1[C@H](CO)[C@@H](O)C[C@@H]1n1cnc2c(=O)[nH]c(N)nc21` [ETV, entecavir], the “Average percent of cell viability vs control” value in data set [1] stood at 101.92%. Besides, the “SYNERGY PLOT (99%) Bonferroni Adj. 55%” value in data set [2] is 0. In addition, the “ADDITIVE INHIBITION” value worked out at 28.28 in data set [2] (ETV 0.0003 μM alone), 38.31 in data set [2] (ETV 0.001 μM alone), 62.92 in data set [2] (ETV 0.003 μM alone) and 88.06 in data set [2] (ETV 0.008 μM alone). In data set [2] (Hepatitis B virus, HepDE19, Expt 3, ETV 0.0003 μM alone), the inhibition at 0.0003 µM stood at 28.3%. Besides, the inhibition at 0.001 µM in data set [2] (Hepatitis B virus, HepDE19, Expt 3, ETV 0.001 μM alone, read-out: AVERAGE % INHIBITION) worked out at 38.3%. In data set [2] (Hepatitis B virus, HepDE19, Expt 3, ETV 0.003 μM alone, read-out: AVERAGE % INHIBITION), the inhibition at 0.003 µM stood at 62.9%. The inhibition at 0.008 µM in data set [2] (Hepatitis B virus, HepDE19, Expt 3, ETV 0.008 μM alone) was 88.1%. Further, the pEC50 in data set [2] (Hepatitis B virus, HepDE19, combination studies with Cmpd 1, read-out: Avg. Inhibitor B EC50) is 9.00.
